Key:
[1] = target: MmCLK1 (Mus musculus, UniProt P22518); assay: ADP-Glo kinase assay; format: biochemical, Mus musculus (Mm)
Procedure: Kinase activities were determined using the ADP-Glo methodology (ADP-Glo Kinase Assay; Promega) according to the assay described by Nguyen et al.[32] except for MmCLK1. The later was assayed in the following buffer: 10 mM MgCl2, 1 mM EGTA, 1 mM DTT, 25 mM Tris-HCl pH 7.5, 50 µg/ml heparin, 0.15 mg/ml BSA, with 0.027 µg/µl of the following peptide: GRSRSRSRSRSR as substrate.

[2] = target: T1, PIK3C2G (PI3K-C2 gamma) (Homo sapiens, UniProt O75747); assay: SelectScreen Adapta; format: biochemical; conditions: ATP Km, read-out: Percentage of inhibition
T1 construct: purchased Life Technologies (SelectScreen Whole Panel service)
Procedure: (§1) We further evaluated the selectivity profile of compound 55 on a larger panel of kinases (SelectScreen Whole Panel, Life Technologies). The inhibition profile of 55, evaluated at 1 μM, is depicted on a dendrogram on Figure 3 where kinases inhibited by a minimum of 80% are shown. A full list of the kinases tested is shown on Table S1 in supplementary information.

[3] = target: T2, PIK3CA/PIK3R3 (p110 alpha/p55 gamma) (Homo sapiens, UniProt P42336); assay: SelectScreen Adapta; format: biochemical; conditions: ATP Km, read-out: Percentage of inhibition
T2 construct: purchased Life Technologies (SelectScreen Whole Panel)
Procedure: as §1

[4] = target: T3, GSG2 (Haspin) (Homo sapiens, UniProt Q8TF76); assay: SelectScreen Adapta; format: biochemical; conditions: ATP Km, read-out: Percentage of inhibition
T3 construct: purchased Life Technologies (SelectScreen Whole Panel)
Procedure: as §1

[5] = target: PIK3CA E542K/PIK3R1 (p110 alpha E542K/p85 alpha (Homo sapiens, UniProt P42336, E542K)); assay: SelectScreen Adapta; format: biochemical; conditions: ATP 10 µM, read-out: Percentage of inhibition
Procedure: as §1

[6] = target: T4, CDK4/cyclin D1 (Homo sapiens, UniProt P11802); assay: SelectScreen Adapta; format: biochemical; conditions: ATP 10 µM, read-out: Percentage of inhibition
T4 construct: purchased Life Technologies (SelectScreen Whole Panel service)
Procedure: as §1

[7] = target: T5, CAMK1 (CaMK1) (Homo sapiens, UniProt Q14012); assay: SelectScreen Adapta; format: biochemical; conditions: ATP 10 µM, read-out: Percentage of inhibition
T5 construct: purchased Life Technologies (SelectScreen Whole Panel service)
Procedure: as §1

[8] = target: T6, PIP5K1C (Homo sapiens, UniProt O60331); assay: SelectScreen Adapta; format: biochemical; conditions: ATP 10 µM, read-out: Percentage of inhibition
T6 construct: purchased Life Technologies (SelectScreen Whole Panel service)
Procedure: as §1

[9] = target: PIK3CG (p110 gamma) (Homo sapiens, UniProt P48736); assay: SelectScreen Adapta; format: biochemical; conditions: ATP Km, read-out: Percentage of inhibition
Procedure: as §1

[10] = target: PIK3CA/PIK3R1 (p110 alpha/p85 alpha) (Homo sapiens, UniProt P42336); assay: SelectScreen Adapta; format: biochemical; conditions: ATP Km, read-out: Percentage of inhibition
Procedure: as §1

[11] = target: T7, LRRK2 R1441C (Homo sapiens, UniProt Q5S007, R1441C); assay: SelectScreen Adapta; format: biochemical; conditions: ATP Km, read-out: Percentage of inhibition
T7 construct: purchased Life Technologies
Procedure: as §1

[12] = target: T8, LRRK2 I2020T (Homo sapiens, UniProt Q5S007, I2020T); assay: SelectScreen Adapta; format: biochemical; conditions: ATP Km, read-out: Percentage of inhibition
T8 construct: purchased Life Technologies (SelectScreen Whole Panel)
Procedure: as §1

[13] = target: T9, LRRK2 G2019S FL (Homo sapiens, UniProt Q5S007, G2019S); assay: SelectScreen Adapta; format: biochemical; conditions: ATP Km, read-out: Percentage of inhibition
T9 construct: LRRK2 G2019S FL; purchased Life Technologies (SelectScreen Whole Panel)
Procedure: as §1

[14] = target: T10, PI4K2A (PI4K2 alpha) (Homo sapiens, UniProt Q9BTU6); assay: SelectScreen Adapta; format: biochemical; conditions: ATP Km, read-out: Percentage of inhibition
T10 construct: purchased Life Technologies (SelectScreen Whole Panel)
Procedure: as §1

[15] = target: T11, SPHK1 (Homo sapiens, UniProt Q9NYA1); assay: SelectScreen Adapta; format: biochemical; conditions: ATP Km, read-out: Percentage of inhibition
T11 construct: purchased Life Technologies (SelectScreen Whole Panel)
Procedure: as §1

[16] = target: T12, PIK3CD/PIK3R1 (p110 delta/p85 alpha) (Homo sapiens, UniProt O00329); assay: SelectScreen Adapta; format: biochemical; conditions: ATP Km, read-out: Percentage of inhibition
T12 construct: purchased Life Technologies (SelectScreen Whole Panel service)
Procedure: as §1

[17] = target: T13, LRRK2 (Homo sapiens, UniProt Q5S007); assay: SelectScreen Adapta; format: biochemical; conditions: ATP Km, read-out: Percentage of inhibition
T13 construct: purchased Life Technologies (SelectScreen service)
Procedure: as §1

[18] = target: T14, LRRK2 FL (Homo sapiens, UniProt Q5S007); assay: SelectScreen Adapta; format: biochemical; conditions: ATP Km, read-out: Percentage of inhibition
T14 construct: purchased Life Technologies
Procedure: as §1

[19] = target: PIK3C2A (PI3K-C2 alpha) (Homo sapiens, UniProt O00443); assay: SelectScreen Adapta; format: biochemical; conditions: ATP Km, read-out: Percentage of inhibition
Procedure: as §1

[20] = target: CDK6/cyclin D1 (Homo sapiens, UniProt Q00534); assay: SelectScreen Adapta; format: biochemical; conditions: ATP 10 µM, read-out: Percentage of inhibition
Procedure: as §1

[21] = target: T15, PIK3CB/PIK3R1 (p110 beta/p85 alpha) (Homo sapiens, UniProt P42338); assay: SelectScreen Adapta; format: biochemical; conditions: ATP Km, read-out: Percentage of inhibition
T15 construct: purchased Life Technologies (SelectScreen)
T15 sequence (P42338 whole entry): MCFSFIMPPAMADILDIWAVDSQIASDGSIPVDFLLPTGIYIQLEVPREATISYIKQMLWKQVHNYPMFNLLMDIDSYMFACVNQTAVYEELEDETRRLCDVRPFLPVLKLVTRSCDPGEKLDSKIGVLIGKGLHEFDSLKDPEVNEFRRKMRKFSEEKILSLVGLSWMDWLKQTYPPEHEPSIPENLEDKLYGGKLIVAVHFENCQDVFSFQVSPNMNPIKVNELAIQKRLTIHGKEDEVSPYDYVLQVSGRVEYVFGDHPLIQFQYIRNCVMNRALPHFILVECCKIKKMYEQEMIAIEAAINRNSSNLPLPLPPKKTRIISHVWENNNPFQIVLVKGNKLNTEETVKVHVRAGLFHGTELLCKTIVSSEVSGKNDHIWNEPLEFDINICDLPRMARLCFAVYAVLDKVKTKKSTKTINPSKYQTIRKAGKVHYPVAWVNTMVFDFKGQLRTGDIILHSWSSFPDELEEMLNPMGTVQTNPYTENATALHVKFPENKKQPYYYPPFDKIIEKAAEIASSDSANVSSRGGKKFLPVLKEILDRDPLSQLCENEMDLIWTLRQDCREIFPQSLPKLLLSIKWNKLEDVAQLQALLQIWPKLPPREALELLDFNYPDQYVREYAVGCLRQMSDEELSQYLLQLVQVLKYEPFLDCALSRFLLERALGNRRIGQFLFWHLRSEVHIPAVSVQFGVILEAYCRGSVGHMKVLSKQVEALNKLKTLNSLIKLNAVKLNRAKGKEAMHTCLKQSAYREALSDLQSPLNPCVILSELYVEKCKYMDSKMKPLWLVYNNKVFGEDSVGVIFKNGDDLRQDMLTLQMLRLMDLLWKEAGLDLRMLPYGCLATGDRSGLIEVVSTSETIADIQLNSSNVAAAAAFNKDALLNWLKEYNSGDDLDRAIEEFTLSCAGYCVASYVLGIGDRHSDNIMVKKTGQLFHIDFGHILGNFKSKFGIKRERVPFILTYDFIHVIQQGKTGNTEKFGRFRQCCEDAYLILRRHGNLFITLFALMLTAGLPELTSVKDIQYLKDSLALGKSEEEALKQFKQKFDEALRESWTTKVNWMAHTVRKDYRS
T15 sequence (P27986 whole entry partner): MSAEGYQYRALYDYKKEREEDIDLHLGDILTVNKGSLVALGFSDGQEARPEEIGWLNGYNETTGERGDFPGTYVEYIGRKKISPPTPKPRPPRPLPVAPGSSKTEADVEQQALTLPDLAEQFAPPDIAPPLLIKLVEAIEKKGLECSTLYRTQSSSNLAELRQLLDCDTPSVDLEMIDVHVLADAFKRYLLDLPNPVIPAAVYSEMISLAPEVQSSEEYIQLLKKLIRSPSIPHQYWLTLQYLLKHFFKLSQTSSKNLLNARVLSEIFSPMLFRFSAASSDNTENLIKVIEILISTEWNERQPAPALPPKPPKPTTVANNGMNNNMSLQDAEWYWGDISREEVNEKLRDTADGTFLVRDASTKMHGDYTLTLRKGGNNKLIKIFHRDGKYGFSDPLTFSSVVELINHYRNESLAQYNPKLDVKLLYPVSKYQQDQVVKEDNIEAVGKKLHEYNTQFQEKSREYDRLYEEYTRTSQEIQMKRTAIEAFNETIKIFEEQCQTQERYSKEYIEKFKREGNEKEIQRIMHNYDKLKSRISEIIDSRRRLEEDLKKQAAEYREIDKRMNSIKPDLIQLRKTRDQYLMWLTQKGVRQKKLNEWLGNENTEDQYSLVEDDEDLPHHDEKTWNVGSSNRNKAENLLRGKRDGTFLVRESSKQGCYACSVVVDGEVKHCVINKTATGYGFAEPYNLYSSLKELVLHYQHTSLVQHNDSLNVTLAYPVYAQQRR
Procedure: as §1

[22] = target: T16, CDK7/cyclin H/MNAT1 (Homo sapiens, UniProt P50613); assay: SelectScreen Adapta; format: biochemical; conditions: ATP Km, read-out: Percentage of inhibition
T16 construct: purchased Life Technologies
T16 sequence (P50613 whole entry): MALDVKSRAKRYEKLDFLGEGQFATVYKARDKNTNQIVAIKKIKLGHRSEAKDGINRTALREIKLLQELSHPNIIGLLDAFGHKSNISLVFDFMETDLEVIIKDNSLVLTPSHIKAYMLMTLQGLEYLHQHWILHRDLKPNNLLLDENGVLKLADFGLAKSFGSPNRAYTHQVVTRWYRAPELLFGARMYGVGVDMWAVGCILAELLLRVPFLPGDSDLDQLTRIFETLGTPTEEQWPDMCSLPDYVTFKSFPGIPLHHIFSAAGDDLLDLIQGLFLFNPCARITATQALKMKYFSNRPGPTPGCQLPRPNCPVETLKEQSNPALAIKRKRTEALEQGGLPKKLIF
T16 sequence (P51946 whole entry partner): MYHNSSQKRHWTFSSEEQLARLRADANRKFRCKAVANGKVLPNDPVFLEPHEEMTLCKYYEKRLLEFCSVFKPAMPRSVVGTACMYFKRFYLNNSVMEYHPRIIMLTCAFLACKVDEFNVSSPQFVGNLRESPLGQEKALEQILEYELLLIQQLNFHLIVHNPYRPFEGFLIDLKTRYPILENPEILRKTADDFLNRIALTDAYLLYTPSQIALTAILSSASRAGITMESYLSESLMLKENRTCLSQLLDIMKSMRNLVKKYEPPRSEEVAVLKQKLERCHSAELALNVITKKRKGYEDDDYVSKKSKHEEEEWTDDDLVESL
T16 sequence (P51948 whole entry partner): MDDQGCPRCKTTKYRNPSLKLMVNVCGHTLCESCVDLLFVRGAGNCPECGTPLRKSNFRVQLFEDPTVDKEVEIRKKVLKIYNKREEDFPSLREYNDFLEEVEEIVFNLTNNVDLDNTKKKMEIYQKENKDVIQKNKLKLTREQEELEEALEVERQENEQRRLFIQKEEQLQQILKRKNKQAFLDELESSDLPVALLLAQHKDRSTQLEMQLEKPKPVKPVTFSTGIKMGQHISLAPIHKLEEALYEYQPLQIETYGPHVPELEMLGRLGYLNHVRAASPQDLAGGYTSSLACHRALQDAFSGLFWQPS
Procedure: as §1

[23] = target: T17, PIP5K1B (Homo sapiens, UniProt O14986); assay: SelectScreen Adapta; format: biochemical; conditions: ATP 10 µM, read-out: Percentage of inhibition
T17 construct: purchased Life Technologies
Procedure: as §1

[24] = target: T18, CHUK (IKK alpha) (Homo sapiens, UniProt O15111); assay: SelectScreen Adapta; format: biochemical; conditions: ATP Km, read-out: Percentage of inhibition
T18 construct: purchased Life Technologies
Procedure: as §1

[25] = target: T19, CDK4/cyclin D3 (Homo sapiens, UniProt P11802); assay: SelectScreen Adapta; format: biochemical; conditions: ATP 10 µM, read-out: Percentage of inhibition
T19 construct: purchased Life Technologies
Procedure: as §1

[26] = target: PIK3C2B (Homo sapiens, UniProt O00750); assay: SelectScreen Adapta; format: biochemical; conditions: ATP 10 µM, read-out: Percentage of inhibition
Procedure: as §1

[27] = target: T20, PIK3CB/PIK3R2 (p110 beta/p85 beta) (Homo sapiens, UniProt P42338); assay: SelectScreen Adapta; format: biochemical; conditions: ATP Km, read-out: Percentage of inhibition
T20 construct: purchased Life Technologies
T20 sequence (P42338 whole entry): as the sequence (P42338 whole entry) above
T20 sequence (O00459 whole entry partner): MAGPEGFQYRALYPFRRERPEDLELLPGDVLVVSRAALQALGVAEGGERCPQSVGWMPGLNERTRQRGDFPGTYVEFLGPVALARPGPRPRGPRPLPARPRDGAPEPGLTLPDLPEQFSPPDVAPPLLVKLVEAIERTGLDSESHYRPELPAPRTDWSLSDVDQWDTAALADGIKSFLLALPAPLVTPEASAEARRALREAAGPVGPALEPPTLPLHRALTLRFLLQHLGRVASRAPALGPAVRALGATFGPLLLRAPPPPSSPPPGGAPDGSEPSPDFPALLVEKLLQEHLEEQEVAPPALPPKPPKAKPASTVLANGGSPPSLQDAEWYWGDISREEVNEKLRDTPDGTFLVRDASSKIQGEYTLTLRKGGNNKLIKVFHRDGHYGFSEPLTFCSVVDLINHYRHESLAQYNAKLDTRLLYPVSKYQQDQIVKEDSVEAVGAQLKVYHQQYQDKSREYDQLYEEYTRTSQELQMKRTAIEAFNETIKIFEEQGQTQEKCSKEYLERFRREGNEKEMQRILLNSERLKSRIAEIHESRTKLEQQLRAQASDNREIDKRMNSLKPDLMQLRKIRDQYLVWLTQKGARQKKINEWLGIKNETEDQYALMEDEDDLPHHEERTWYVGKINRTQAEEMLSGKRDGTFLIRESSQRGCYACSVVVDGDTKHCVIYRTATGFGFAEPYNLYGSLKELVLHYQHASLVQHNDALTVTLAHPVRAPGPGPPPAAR
Procedure: as §1

[28] = target: T21, PIK3C3 (hVPS34) (Homo sapiens, UniProt Q8NEB9); assay: SelectScreen Adapta; format: biochemical; conditions: ATP Km, read-out: Percentage of inhibition
T21 construct: purchased Life Technologies (SelectScreen)
T21 sequence (Q8NEB9 whole entry): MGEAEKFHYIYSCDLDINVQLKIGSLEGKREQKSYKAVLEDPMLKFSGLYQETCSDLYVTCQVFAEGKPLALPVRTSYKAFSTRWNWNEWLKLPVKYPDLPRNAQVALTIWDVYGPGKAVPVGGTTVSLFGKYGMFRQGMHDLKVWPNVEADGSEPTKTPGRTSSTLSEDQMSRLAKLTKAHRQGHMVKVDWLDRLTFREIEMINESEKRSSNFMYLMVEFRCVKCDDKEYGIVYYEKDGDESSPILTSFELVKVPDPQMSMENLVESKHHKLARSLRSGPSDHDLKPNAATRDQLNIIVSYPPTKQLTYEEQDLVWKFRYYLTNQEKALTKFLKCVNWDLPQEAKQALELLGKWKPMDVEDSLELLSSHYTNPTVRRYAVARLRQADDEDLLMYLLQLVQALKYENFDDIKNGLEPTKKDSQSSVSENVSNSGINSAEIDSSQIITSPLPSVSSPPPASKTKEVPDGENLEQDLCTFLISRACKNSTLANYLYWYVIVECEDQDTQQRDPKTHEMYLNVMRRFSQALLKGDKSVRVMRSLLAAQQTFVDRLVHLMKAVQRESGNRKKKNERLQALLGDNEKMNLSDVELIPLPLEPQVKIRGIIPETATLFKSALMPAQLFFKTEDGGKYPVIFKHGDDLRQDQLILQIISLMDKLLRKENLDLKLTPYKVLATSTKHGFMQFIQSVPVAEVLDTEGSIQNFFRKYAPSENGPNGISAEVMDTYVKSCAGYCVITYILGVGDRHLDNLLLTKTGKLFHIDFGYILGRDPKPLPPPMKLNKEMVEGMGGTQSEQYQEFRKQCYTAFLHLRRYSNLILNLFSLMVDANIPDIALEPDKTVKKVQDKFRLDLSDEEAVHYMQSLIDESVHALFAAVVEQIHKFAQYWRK
Procedure: as §1

[29] = target: DAPK1 (Homo sapiens, UniProt P53355); assay: SelectScreen Adapta; format: biochemical; conditions: ATP Km, read-out: Percentage of inhibition
Procedure: as §1

[30] = target: NUAK1 (ARK5) (Homo sapiens, UniProt O60285); assay: SelectScreen Adapta; format: biochemical; conditions: ATP Km, read-out: Percentage of inhibition
Procedure: as §1

[31] = target: T22, PI4KA (PI4K alpha) (Homo sapiens, UniProt P42356); assay: SelectScreen Adapta; format: biochemical; conditions: ATP 10 µM, read-out: Percentage of inhibition
T22 construct: purchased Life Technologies (SelectScreen Whole Panel)
Procedure: as §1

[32] = target: CDK9/cyclin T1 (Homo sapiens, UniProt P50750); assay: SelectScreen Adapta; format: biochemical; conditions: ATP Km, read-out: Percentage of inhibition
Procedure: as §1

Chain of MmCLK1 (P22518 whole entry): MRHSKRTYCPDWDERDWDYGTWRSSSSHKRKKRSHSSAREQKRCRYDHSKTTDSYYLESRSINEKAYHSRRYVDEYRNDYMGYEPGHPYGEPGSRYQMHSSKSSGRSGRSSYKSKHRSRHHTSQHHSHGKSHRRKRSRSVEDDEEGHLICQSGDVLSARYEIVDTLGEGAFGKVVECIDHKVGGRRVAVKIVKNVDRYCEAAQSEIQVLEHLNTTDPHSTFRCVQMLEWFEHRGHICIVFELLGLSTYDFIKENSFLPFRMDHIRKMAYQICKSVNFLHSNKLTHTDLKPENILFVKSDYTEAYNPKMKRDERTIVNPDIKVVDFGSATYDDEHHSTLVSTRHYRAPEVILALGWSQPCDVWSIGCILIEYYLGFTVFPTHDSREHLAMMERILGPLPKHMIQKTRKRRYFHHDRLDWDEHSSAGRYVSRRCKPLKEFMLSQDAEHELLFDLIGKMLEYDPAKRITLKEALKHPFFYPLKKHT

`COc1ccc2[nH]c3c(=O)[nH]c4ccc(O)cc4c3c2c1` [Compound 55, 2-Hydroxy-10-methoxy-5,7-dihydro-6H-indolo[2,3-c]quinolin-6-one] was tested, and the remaining activity at 1 µM ([1]; 1 μM, mean n = 2, % of maximum activity of DMSO control, read-out: % Residual activity at 1 μM CLK1) was 14%, the “Selectivity index CLK1/Haspin” value ([1]; IC50 CLK1/IC50 Haspin) was 17 and the IC50 ([1]; dose-response curve, each point in duplicate, read-out: Kinase inhibition (IC50) CLK1) was 33 nM. It also gave an inhibition at 1 µM [2] of 47%, an inhibition at 1 µM [3] of 53% and an inhibition at 1 µM [4] of 100%. It also gave an inhibition at 1 µM [5] of 70%, an inhibition at 1 µM [6] of 12% and an inhibition at 1 µM [7] of 10%. It also gave an inhibition at 1 µM [8] of 49%, an inhibition at 1 µM [9] of 19% and an inhibition at 1 µM [10] of 62%. The inhibition at 1 µM [11] was 93%, the inhibition at 1 µM [12] was 100% and the inhibition at 1 µM [13] was 98%. It also gave an inhibition at 1 µM [14] of 1%, an inhibition at 1 µM [15] of -3% and an inhibition at 1 µM [16] of 44%. The inhibition at 1 µM [17] was 90%, the inhibition at 1 µM [18] was 95% and the inhibition at 1 µM [19] was 14%. It also gave an inhibition at 1 µM [20] of 14%, an inhibition at 1 µM [21] of 9% and an inhibition at 1 µM [22] of 27%. It also gave an inhibition at 1 µM [23] of 33%, an inhibition at 1 µM [24] of 38% and an inhibition at 1 µM [25] of 5%. The inhibition at 1 µM [26] was 67%, the inhibition at 1 µM [27] was 33% and the inhibition at 1 µM [28] was 9%. The inhibition at 1 µM [29] was 57%, the inhibition at 1 µM [30] was 65% and the inhibition at 1 µM [31] was 0%. It also gave an inhibition at 1 µM [32] of 70%.
